Measurements taken from PubChem BioAssay AID248 (DTP/NCI, 2004).
Toxic doses and inconclusive results are not listed. Rule as the data show it: active = T/C of 150% or more; inactive = T/C below 125%.

System: L1210 leukemia ip in BDF1 mice, survival T/C
Assay: NCI In Vivo Anticancer Drug Screen. Data for tumor model L1210 Leukemia (intraperitoneal) in B6D2F1 (BDF1) mice
Conditions: endpoint: mean survival time, higher = longer survival
Method in brief: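 Each compound was tested against a transplantable tumor grown in mice. The endpoint was survival, with treated animals benchmarked against vehicle controls as a simple ratio.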

[1] = dose: 100.0 mg/kg/injection, schedule: Q01DX001 (ip), vehicle: other
[2] = dose: 100.0 mg/kg/injection, schedule: Q01DX009 (ip), vehicle: saline
[3] = dose: 100.0 mg/kg/injection, schedule: Q04DX003 (ip), vehicle: saline
[4] = dose: 200.0 mg/kg/injection, schedule: Q01DX001 (ip), vehicle: other
[5] = dose: 200.0 mg/kg/injection, schedule: Q01DX009 (ip), vehicle: saline
[6] = dose: 200.0 mg/kg/injection, schedule: Q04DX003 (ip), vehicle: saline
[7] = dose: 400.0 mg/kg/injection, schedule: Q01DX001 (ip), vehicle: other
[8] = dose: 400.0 mg/kg/injection, schedule: Q01DX009 (ip), vehicle: saline
[9] = dose: 100.0 mg/kg/injection, schedule: Q01DX001 (ip), vehicle: saline
[10] = dose: 200.0 mg/kg/injection, schedule: Q01DX001 (ip), vehicle: saline
[11] = dose: 400.0 mg/kg/injection, schedule: Q01DX001 (ip), vehicle: saline
[12] = dose: 100.0 mg/kg/injection, schedule: Q04DX003 (ip), vehicle: other
[13] = dose: 200.0 mg/kg/injection, schedule: Q04DX003 (ip), vehicle: other
[14] = dose: 100.0 mg/kg/injection, schedule: Q01DX009 (ip), vehicle: saline with Tween-80
[15] = dose: 200.0 mg/kg/injection, schedule: Q01DX009 (ip), vehicle: saline with Tween-80
[16] = dose: 400.0 mg/kg/injection, schedule: Q01DX009 (ip), vehicle: saline with Tween-80
[17] = dose: 100.0 mg/kg/injection, schedule: Q04DX003 (ip), vehicle: Klucel (hydroxypropylcellulose) (HPC)
[18] = dose: 200.0 mg/kg/injection, schedule: Q04DX003 (ip), vehicle: Klucel (hydroxypropylcellulose) (HPC)
[19] = dose: 400.0 mg/kg/injection, schedule: Q04DX003 (ip), vehicle: Klucel (hydroxypropylcellulose) (HPC)
[20] = dose: 100.0 mg/kg/injection, schedule: Q01DX009 (ip), vehicle: Klucel (hydroxypropylcellulose) (HPC)
[21] = dose: 200.0 mg/kg/injection, schedule: Q01DX009 (ip), vehicle: Klucel (hydroxypropylcellulose) (HPC)
[22] = dose: 400.0 mg/kg/injection, schedule: Q01DX009 (ip), vehicle: Klucel (hydroxypropylcellulose) (HPC)
[23] = dose: 100.0 mg/kg/injection, schedule: Q04DX003 (ip), vehicle: saline sonified
[24] = dose: 200.0 mg/kg/injection, schedule: Q04DX003 (ip), vehicle: saline sonified
[25] = dose: 400.0 mg/kg/injection, schedule: Q04DX003 (ip), vehicle: saline sonified

Measured: T/C

ClC(c1ccccc1)(c1ccccc1)c1ccccc1
inactive: dose: 50.0 mg/kg/injection, schedule: Q01DX001 (ip), vehicle: other 96 % of control | [1] 102 % of control | [2] 87 % of control | [3] 90 % of control | [4] 106 % of control | [5] 94 % of control | [6] 93 % of control | [7] 100 % of control | [8] 90 % of control | dose: 400.0 mg/kg/injection, schedule: Q04DX003 (ip), vehicle: saline 88 % of control

CN(C)c1ccc([N+](=O)[O-])cn1
inactive: dose: 100.0 mg/kg/injection, schedule: Q04DX002 (ip), vehicle: saline with Tween-80 97 % of control | dose: 200.0 mg/kg/injection, schedule: Q04DX002 (ip), vehicle: saline with Tween-80 97 % of control

CCCC(C)CC(=O)O (stereo unspecified)
inactive: [9] 102 % of control | [10] 102 % of control | [11] 98 % of control

C=CCN(CC=C)CCNc1cc(C)nc(/N=C(\N)Nc2ccc(Cl)c(Cl)c2)n1
inactive: dose: 75.0 mg/kg/injection, schedule: Q01DX001 (ip), vehicle: other 92 % of control | dose: 150.0 mg/kg/injection, schedule: Q01DX001 (ip), vehicle: other 92 % of control | dose: 300.0 mg/kg/injection, schedule: Q01DX001 (ip), vehicle: other 92 % of control

Oc1ccccc1C=Nc1cccc2c(N=Cc3ccccc3O)cccc12
inactive: dose: 50.0 mg/kg/injection, schedule: Q04DX003 (ip), vehicle: other 89 % of control | [9] 86 % of control | [12] 86 % of control | [10] 88 % of control | [13] 86 % of control | [11] 86 % of control

CNC(=O)Oc1cccc(NC(=O)OC2CCCCC2)c1
inactive: [14] 89 % of control | [15] 97 % of control | [16] 89 % of control

O=c1[nH]c2c(cc1Br)C(Br)C(Br)C=C2 (stereo unspecified)
inactive: [1] 105 % of control | [4] 108 % of control

CCc1noc(CC)c1CC1=C2CCC3(C)CCC(C)(C)CC3C2(C)CCC1=O (stereo unspecified)
inactive: [1] 96 % of control | [14] 93 % of control | [4] 94 % of control | [15] 91 % of control | [7] 97 % of control | [16] 90 % of control

C/C(CNc1nc(N)nc(N)c1N=Nc1ccc(Cl)cc1)=N\NC(N)=O
inactive: [9] 94 % of control | [10] 98 % of control | [11] 94 % of control

Cc1c2cnccc2c(C)c2c1c1ccccc1n2CCCCCC#N
inactive: [17] 100 % of control | [18] 97 % of control | [19] 100 % of control

O=C(C[N+]12CCC(O)C1C(CO)CC2)c1ccc(Br)cc1 (stereo unspecified)
inactive: [3] 96 % of control | [6] 89 % of control

O=NN(c1ccccc1)c1ccc(N(N=O)c2ccccc2)cc1
inactive: dose: 50.0 mg/kg/injection, schedule: Q01DX009 (ip), vehicle: Klucel (hydroxypropylcellulose) (HPC) 97 % of control | [20] 96 % of control | [17] 93 % of control | [21] 100 % of control | [18] 100 % of control | [22] 96 % of control | [19] 96 % of control

Cc1cnc2nc(N)[nH]c(=O)c2c1
inactive: [23] 98 % of control | [24] 95 % of control | [25] 95 % of control

CNc1cccc([N+](=O)[O-])c1
inactive: [9] 95 % of control | [10] 103 % of control

CC(=O)OC(C(C)=O)C(C)=O.CC(=O)OC(C(C)=O)C(C)=O.[Cu]
inactive: dose: 12.0 mg/kg/injection, schedule: Q01DX001 (ip), vehicle: saline 93 % of control | dose: 12.0 mg/kg/injection, schedule: Q04DX003 (ip), vehicle: saline 96 % of control | dose: 25.0 mg/kg/injection, schedule: Q01DX001 (ip), vehicle: saline 95 % of control | dose: 25.0 mg/kg/injection, schedule: Q04DX003 (ip), vehicle: saline 96 % of control | dose: 50.0 mg/kg/injection, schedule: Q01DX001 (ip), vehicle: saline 101 % of control | dose: 50.0 mg/kg/injection, schedule: Q04DX003 (ip), vehicle: saline 103 % of control

O=C1NN=C2CCCCC12 (stereo unspecified)
inactive: [12] 107 % of control | [13] 97 % of control | dose: 400.0 mg/kg/injection, schedule: Q04DX003 (ip), vehicle: other 102 % of control

COC(=O)Nc1nc2ccc(Br)cc2[nH]1
inactive: [20] 100 % of control | [17] 92 % of control | [21] 100 % of control | [18] 96 % of control | [22] 109 % of control | [19] 94 % of control

COC1=CCC23C(=O)C=CC(=O)C2(C1)C(=O)c1ccccc1C3=O (stereo unspecified)
inactive: dose: 3.12 mg/kg/injection, schedule: Q01DX005 (ip), vehicle: saline with Tween-80 110 % of control | dose: 6.25 mg/kg/injection, schedule: Q01DX005 (ip), vehicle: saline with Tween-80 103 % of control | dose: 12.5 mg/kg/injection, schedule: Q01DX005 (ip), vehicle: saline with Tween-80 97 % of control

O=S(=O)(NC(=S)Nc1ccc(Cl)cc1)c1ccccc1
inactive: dose: 100.0 mg/kg/injection, schedule: Q04DX003 (ip), vehicle: saline with Tween-80 110 % of control | dose: 200.0 mg/kg/injection, schedule: Q04DX003 (ip), vehicle: saline with Tween-80 107 % of control | dose: 400.0 mg/kg/injection, schedule: Q04DX003 (ip), vehicle: saline with Tween-80 93 % of control

CN(C)C(=O)Oc1c(Cl)cccc1Cl
inactive: [20] 92 % of control | [17] 97 % of control | [21] 97 % of control | [18] 96 % of control | [19] 89 % of control

Cc1cc(=O)[nH]c(O)c1C#N
inactive: [14] 98 % of control | [15] 108 % of control | [16] 98 % of control

Cc1ccc(C(=O)C(C)(C)C)c(C)c1
inactive: [2] 97 % of control | [5] 97 % of control | [8] 93 % of control

CC(=O)Oc1c2n(c(=O)c3cocc13)Cc1cc3ccccc3nc1-2
inactive: dose: 100.0 mg/kg/injection, schedule: Q01DX001 (ip), vehicle: Klucel (hydroxypropylcellulose) (HPC) 92 % of control | dose: 200.0 mg/kg/injection, schedule: Q01DX001 (ip), vehicle: Klucel (hydroxypropylcellulose) (HPC) 94 % of control | dose: 400.0 mg/kg/injection, schedule: Q01DX001 (ip), vehicle: Klucel (hydroxypropylcellulose) (HPC) 90 % of control

CCCCCC(C(C)=O)(C1=NC(C)(C)CC(C)O1)c1ccccc1 (stereo unspecified)
inactive: [23] 103 % of control | [24] 120 % of control | [25] 111 % of control

CC(=Nc1cccc(C)c1C)c1c(O)cc(C)oc1=O
inactive: [2] 108 % of control | [5] 97 % of control | [8] 103 % of control
